Experimental data: patent US20260285875A1, “INHIBITORS OF PARG” (858 Therapeutics, Inc., priority 2023, published 2026)

What follows are compounds tested against T1, cellular PARG (Homo sapiens, UniProt Q86W56) (assay: Nuclear PAR accumulation assay (immunofluorescence high-content imaging, MMS-treated HeLa cells)). Settings: 1 hour compound then MMS 50 μg/mL for an additional hour.
T1 construct: endogenous in cells; host or cells: HeLa
Assay type: cell-based
Protocol: HeLa cells were plated at 15,000 cells/well in a 96-well plate the day before compound treatment and then treated with varying concentrations of test compound and incubated for 1 hour at 37° C.+5% CO2. Following test compound treatment, methylmethane sulfonate (MMS) was added to a final concentration of 50 μg/mL and the cells were incubated for an additional hour. Following treatment, the cells were fixed with ice cold 95% methanol and the plates sealed and placed at -20° C. for 15 minutes. The cells were then washed once with phosphate buffered saline (PBS) and permeabilized with 0.10% Triton-X 100 for 20 minutes at room temperature. […] The cells were then washed three times with PBS before incubation with a fluorescently conjugated goat anti-mouse antibody (Invitrogen A32723) diluted 1:500 in 5% FBS+0.1% Tween-20+PBS for 1 hour at room temperature. The cells were again washed three times with PBS and the nuclei labeled by incubating with 1 μg/mL DAPI (4′,6-diamidino-2-phenylindole). Nuclear PAR accumulation was evaluated using high-content fluorescence microscopy. Four fields for each well were acquired at 20× magnification resulting in at least 1,000 cells analyzed per well. […] Both the average intensity per nucleus and percent PAR positive cells were quantified. […] Concentration-response-curves and IC50 values were generated using four parameter logistic curve fit software.
Representative data for exemplary compounds is presented in Table 32, Table 33 and Table 34.

T1 sequence (Q86W56 whole entry): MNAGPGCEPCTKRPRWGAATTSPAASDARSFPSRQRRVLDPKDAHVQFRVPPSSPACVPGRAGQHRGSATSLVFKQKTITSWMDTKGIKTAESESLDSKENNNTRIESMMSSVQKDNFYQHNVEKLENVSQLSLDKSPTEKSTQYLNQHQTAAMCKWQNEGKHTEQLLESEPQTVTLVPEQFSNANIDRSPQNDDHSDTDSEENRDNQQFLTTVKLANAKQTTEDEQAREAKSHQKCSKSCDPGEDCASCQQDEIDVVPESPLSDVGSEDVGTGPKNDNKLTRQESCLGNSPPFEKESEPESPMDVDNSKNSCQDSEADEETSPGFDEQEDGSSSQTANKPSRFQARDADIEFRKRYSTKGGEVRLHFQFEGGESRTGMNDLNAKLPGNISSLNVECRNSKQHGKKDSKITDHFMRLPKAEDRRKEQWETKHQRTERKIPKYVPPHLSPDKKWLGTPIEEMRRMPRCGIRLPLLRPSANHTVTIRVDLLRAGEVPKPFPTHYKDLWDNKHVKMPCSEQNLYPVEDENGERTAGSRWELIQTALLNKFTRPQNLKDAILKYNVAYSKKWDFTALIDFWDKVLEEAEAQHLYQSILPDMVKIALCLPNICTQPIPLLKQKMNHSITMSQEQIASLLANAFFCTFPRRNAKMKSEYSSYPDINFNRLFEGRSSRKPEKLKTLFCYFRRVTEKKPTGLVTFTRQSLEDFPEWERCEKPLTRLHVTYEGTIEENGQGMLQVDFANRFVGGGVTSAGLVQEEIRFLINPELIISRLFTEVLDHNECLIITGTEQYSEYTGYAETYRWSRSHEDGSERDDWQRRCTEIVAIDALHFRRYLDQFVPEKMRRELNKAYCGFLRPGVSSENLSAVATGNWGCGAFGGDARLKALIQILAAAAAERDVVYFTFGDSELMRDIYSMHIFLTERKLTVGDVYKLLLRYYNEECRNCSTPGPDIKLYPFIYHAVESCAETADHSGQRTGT

Row | SMILES | IC50
1 | CC#C[C@@H]1CN=C2N(C)C(=O)c3cc(S(=O)(=O)NC4(C)CC4)cc(Br)c3N21 [Example 42, (R)-9-bromo-4-methyl-N-(1-methylcyclopropyl)-5-oxo-1-(prop-1-yn-1-yl)-1,2,4,5-tetrahydroimidazo[1,2-a]quinazoline-7-sulfonamide] | < 100 nM
2 | [2H]C([2H])(c1cnn(C)c1)N1C(=O)c2cc(S(=O)(=O)NC3(C)CC3)ccc2N2C1=NC[C@H]2C#C [Example 43, (R)-1-ethynyl-4-((1-methyl-1H-pyrazol-4-yl)methyl-d2)-N-(1-methylcyclopropyl)-5-oxo-1,2,4,5-tetrahydroimidazo[1,2-a]quinazoline-7-sulfonamide] | < 100 nM
3 | Cn1cc(CN2C(=O)c3cc(S(=O)(=O)NC4(C)CC4)ccc3N3C2=NC[C@H]3C2CCOCC2)cn1 [Example 44, (R)-4-((1-methyl-1H-pyrazol-4-yl)methyl)-N-(1-methylcyclopropyl)-5-oxo-1-(tetrahydro-2H-pyran-4-yl)-1,2,4,5-tetrahydroimidazo[1,2-a]quinazoline-7-sulfonamide] | 100 to 1000 nM
4 | Cn1cc(CN2C(=O)c3cc(S(=O)(=O)NC4(C)CC4)ccc3N3C2=NC[C@H]3C2CCC(F)(F)CC2)cn1 [Example 45, (R)-1-(4,4-difluorocyclohexyl)-4-((1-methyl-1H-pyrazol-4-yl)methyl)-N-(1-methylcyclopropyl)-5-oxo-1,2,4,5-tetrahydroimidazo[1,2-a]quinazoline-7-sulfonamide] | < 100 nM
5 | CN(C)C(=O)N1CCN(c2cc(S(=O)(=O)NC3(C)CC3)cc3c2N2CC(C)(C)N=C2N(C)C3=O)CC1 [Example 46, N,N-dimethyl-4-(2,2,4-trimethyl-7-(N-(1-methylcyclopropyl)sulfamoyl)-5-oxo-1,2,4,5-tetrahydroimidazo[1,2-a]quinazolin-9-yl)piperazine-1-carboxamide] | < 100 nM
6 | Cn1cc(CN2C(=O)c3cc(S(=O)(=O)NC4(C)CC4)ccc3N3C2=NC[C@H]3C(F)F)cn1 [Example 47, (S)-1-(difluoromethyl)-4-((1-methyl-1H-pyrazol-4-yl)methyl)-N-(1-methylcyclopropyl)-5-oxo-1,2,4,5-tetrahydroimidazo[1,2-a]quinazoline-7-sulfonamide] | < 100 nM
7 | Cn1cc(CN2C(=O)c3cc(S(=O)(=O)NC4(C)CC4)ccc3N3C2=NC[C@H]3C2CCCC2)cn1 [Example 48, (R)-1-cyclopentyl-4-((1-methyl-1H-pyrazol-4-yl)methyl)-N-(1-methylcyclopropyl)-5-oxo-1,2,4,5-tetrahydroimidazo[1,2-a]quinazoline-7-sulfonamide] | < 100 nM
8 | [2H]C([2H])(c1cnn(C)c1)N1C(=O)c2cc(S(=O)(=O)NC3(C)CC3)ccc2N2C1=NC[C@H]2C#CC1(C)CC1 [Example 49, (R)-4-((1-methyl-1H-pyrazol-4-yl)methyl-d2)-N-(1-methylcyclopropyl)-1-((1-methylcyclopropyl)ethynyl)-5-oxo-1,2,4,5-tetrahydroimidazo[1,2-a]quinazoline-7-sulfonamide] | < 100 nM
9 | CNC(=O)c1ccc(-c2cc(S(=O)(=O)NC3(C)CC3)cc3c2N2C(=N[C@H]4CCC[C@H]42)N(C)C3=O)cn1 [Example 50, N-methyl-5-((7aS,10aR)-6-methyl-3-(N-(1-methylcyclopropyl)sulfamoyl)-5-oxo-6,7a,8,9,10,10a-hexahydro-5H-cyclopenta[4,5]imidazo[1,2-a]quinazolin-1-yl)picolinamide] | 100 to 1000 nM
10 | C#C[C@@H]1CN=C2N(C)C(=O)c3cc(S(=O)(=O)NC4(C)CC4)cc(Cl)c3N21 [Example 51, (R)-9-chloro-1-ethynyl-4-methyl-N-(1-methylcyclopropyl)-5-oxo-1,2,4,5-tetrahydroimidazo[1,2-a]quinazoline-7-sulfonamide] | < 100 nM
11 | CN1C(=O)c2cc(S(=O)(=O)NC3(C)CC3)cc(C3=CCN(C(=O)C4CC4)CC3)c2N2C1=N[C@H]1CCC[C@H]12 [Example 52, (7aS,10aR)-1-(1-(cyclopropanecarbonyl)-1,2,3,6-tetrahydropyridin-4-yl)-6-methyl-N-(1-methylcyclopropyl)-5-oxo-6,7a,8,9,10,10a-hexahydro-5H-cyclopenta[4,5]imidazo[1,2-a]quinazoline-3-sulfonamide] | < 100 nM
12 | C[C@@H]1CN=C2N(Cc3cnn(C)c3)C(=O)c3cc(S(=O)(=O)NC4(C)CC4)cc(N4C[C@H](C)N[C@@H](C)C4)c3N21 [Example 53, (R)-9-((3S,5S)-3,5-dimethylpiperazin-1-yl)-1-methyl-4-((1-methyl-1H-pyrazol-4-yl)methyl)-N-(1-methylcyclopropyl)-5-oxo-1,2,4,5-tetrahydroimidazo[1,2-a]quinazoline-7-sulfonamide] | 1000 to 10000 nM
13 | C[C@H]1CN(c2cc(S(=O)(=O)NC3(C)CC3)cc3c2N2CC(C)(C)N=C2N(C)C3=O)C[C@H](C)N1 [Example 54, 9-((3S,5S)-3,5-dimethylpiperazin-1-yl)-2,2,4-trimethyl-N-(1-methylcyclopropyl)-5-oxo-1,2,4,5-tetrahydroimidazo[1,2-a]quinazoline-7-sulfonamide] | 100 to 1000 nM
14 | [2H]C([2H])(c1cnn(C)c1)N1C(=O)c2cc(S(=O)(=O)NC3(C)CC3)ccc2N2C1=NC[C@H]2C#CCN(C)C [Example 55, (R)-1-(3-(dimethylamino)prop-1-yn-1-yl)-4-((1-methyl-1H-pyrazol-4-yl)methyl-d2)-N-(1-methylcyclopropyl)-5-oxo-1,2,4,5-tetrahydroimidazo[1,2-a]quinazoline-7-sulfonamide] | < 100 nM
15 | CN(C)CC#C[C@@H]1CN=C2N(C)C(=O)c3cc(S(=O)(=O)NC4(C)CC4)cc(Cl)c3N21 [Example 56, (R)-9-chloro-1-(3-(dimethylamino)prop-1-yn-1-yl)-4-methyl-N-(1-methylcyclopropyl)-5-oxo-1,2,4,5-tetrahydroimidazo[1,2-a]quinazoline-7-sulfonamide] | < 100 nM
16 | COc1ccc(C(=O)/C=C/C(=O)N2CCN(c3cc(S(=O)(=O)NC4(C)CC4)cc4c3N3C(=NC[C@H]3C)N(C)C4=O)CC2)cc1 [Example 57, (R,E)-9-(4-(4-(4-methoxyphenyl)-4-oxobut-2-enoyl)piperazin-1-yl)-1,4-dimethyl-N-(1-methylcyclopropyl)-5-oxo-1,2,4,5-tetrahydroimidazo[1,2-a]quinazoline-7-sulfonamide] | 100 to 1000 nM
17 | CNC(=O)c1ccc(-c2cc(S(=O)(=O)NC3(C)CC3)cc3c2N2CC(C)(C)N=C2N(C)C3=O)cn1 [Example 58, N-methyl-5-(2,2,4-trimethyl-7-(N-(1-methylcyclopropyl)sulfamoyl)-5-oxo-1,2,4,5-tetrahydroimidazo[1,2-a]quinazolin-9-yl)picolinamide] | 100 to 1000 nM
18 | CN1C(=O)c2cc(S(=O)(=O)NC3(C)CC3)cc(C3=CCN(C(=O)C4CC4)CC3)c2N2CC(C)(C)N=C12 [Example 59, 9-(1-(cyclopropanecarbonyl)-1,2,3,6-tetrahydropyridin-4-yl)-2,2,4-trimethyl-N-(1-methylcyclopropyl)-5-oxo-1,2,4,5-tetrahydroimidazo[1,2-a]quinazoline-7-sulfonamide] | 100 to 1000 nM
19 | Cc1cc(F)ccc1-c1cc(S(=O)(=O)NC2(C)CC2)cc2c1N1CC(C)(C)N=C1N(C)C2=O [Example 61, 9-(4-fluoro-2-methylphenyl)-2,2,4-trimethyl-N-(1-methylcyclopropyl)-5-oxo-1,2,4,5-tetrahydroimidazo[1,2-a]quinazoline-7-sulfonamide] | 100 to 1000 nM
20 | C[C@@H]1CN=C2N(C)C(=O)c3cc(S(=O)(=O)NC4(C)CC4)cc(-c4ccccc4CO)c3N21 [Example 62, (R)-9-(2-(hydroxymethyl)phenyl)-1,4-dimethyl-N-(1-methylcyclopropyl)-5-oxo-1,2,4,5-tetrahydroimidazo[1,2-a]quinazoline-7-sulfonamide] | 1000 to 10000 nM
21 | C[C@@H]1CN=C2N(C)C(=O)c3cc(S(=O)(=O)NC4(C)CC4)cc(-c4ccccc4C#N)c3N21 [Example 63, (R)-9-(2-cyanophenyl)-1,4-dimethyl-N-(1-methylcyclopropyl)-5-oxo-1,2,4,5-tetrahydroimidazo[1,2-a]quinazoline-7-sulfonamide] | 1000 to 10000 nM
22 | C[C@@H]1CN=C2N(CCCO)C(=O)c3cc(S(=O)(=O)NC4(C)CC4)ccc3N21 [Example 64, (R)-4-(3-hydroxypropyl)-1-methyl-N-(1-methylcyclopropyl)-5-oxo-1,2,4,5-tetrahydroimidazo[1,2-a]quinazoline-7-sulfonamide] | 1000 to 10000 nM
23 | Cn1cc(CN2C(=O)c3cc(S(=O)(=O)NC4(C)CC4)ccc3N3C2=NC[C@H]3C#Cc2ccn(C)n2)cn1 [Example 65, (R)-1-((1-methyl-1H-pyrazol-3-yl)ethynyl)-4-((1-methyl-1H-pyrazol-4-yl)methyl)-N-(1-methylcyclopropyl)-5-oxo-1,2,4,5-tetrahydroimidazo[1,2-a]quinazoline-7-sulfonamide] | < 100 nM
24 | Cn1cc(CN2C(=O)c3cc(S(=O)(=O)NC4(C)CC4)ccc3N3C2=NC[C@H]3C#Cc2ncn(C)n2)cn1 [Example 66, (R)-1-((1-methyl-1H-1,2,4-triazol-3-yl)ethynyl)-4-((1-methyl-1H-pyrazol-4-yl)methyl)-N-(1-methylcyclopropyl)-5-oxo-1,2,4,5-tetrahydroimidazo[1,2-a]quinazoline-7-sulfonamide] | < 100 nM
